US12209089B1, “Pyrimido[1′,6′: 1,5]pyrazolo[4,3-c] [2,7] naphthyridines as CK2 inhibitors” (KING FAISAL UNIVERSITY, priority 2024, dated 2025)
pIC50: −log10 of the molar value.

Columns and labels:
[1] = tested on: PC3 (prostate); assay: In vitro cytotoxic activity (MTT) assay, PC3; type: cell-based; settings: Homo sapiens, Prostate cell; PC3 (prostate) cells, 96 hours exposure; read-out: Cytotoxicity activity IC50 (50% inhibition of cell proliferation)
Method: (§1) Compounds 1-16 were screened for their in vitro cytotoxic activity utilizing a 3-(4,5-dimethyl-thiazol-2-yl)-2,5-diphenyltetrazolium bromide (MTT) assay against selected cancer human cell lines consisting of PC3 (prostate), HCT116 (colon), A375 (melanoma), H1299 (lung), MIAPaCa-2 (pancreas), HL60 (leukemia), MCF7 (breast), MDA-MB-231 (breast) (T. Mosmann, J. Immunol. Meth., 1983, 65, 55-63). The cells were cultured at 37° C. in RMPI1640 medium supplemented with 10% fetal bovine serum, 50 IU/mL penicillin, and 50 μg/mL streptomycin in a 5% CO2 incubator. All cells were sub-cultured 3 times/week by trypsinisation. Viable cells were seeded and allowed to adhere for 12 hours before a test drug was added in 96-well plates at an initial density of 1.0×10^5 cells/mL. Tumor cell lines were separately exposed to various concentrations of the tested compounds followed by incubation at a temperature of 37° C. during 96 hours inside a medium of fresh RMPI 1640. Cells were subsequently incubated at 37° C. using MTT at 0.5 mg/mL during 4 hours. After removal of supernatant, formazan crystals were dissolved in isopropanol and the optical density was measured at 570 nm. CX-4945 was used as a positive control.

[2] = tested on: HCT116 (colon); assay: In vitro cytotoxic activity (MTT) assay, HCT116; type: cell-based; settings: Homo sapiens, HCT-116; HCT116 (colon) cells, 96 hours exposure; read-out: Cytotoxicity activity IC50 (50% inhibition of cell proliferation)
Method: as §1

[3] = tested on: A375 (melanoma); assay: In vitro cytotoxic activity (MTT) assay, A375; type: cell-based; settings: Homo sapiens, A-375; A375 (melanoma) cells, 96 hours exposure; read-out: Cytotoxicity activity IC50 (50% inhibition of cell proliferation)
Method: as §1

[4] = tested on: H1299 (lung); assay: In vitro cytotoxic activity (MTT) assay, H1299; type: cell-based; settings: Homo sapiens, NCI-H1299; H1299 (lung) cells, 96 hours exposure; read-out: Cytotoxicity activity IC50 (50% inhibition of cell proliferation)
Method: as §1

[5] = tested on: MIAPaCa-2 (pancreas); assay: In vitro cytotoxic activity (MTT) assay, MIAPaCa-2; type: cell-based; settings: Homo sapiens, MIA PaCa-2; MIAPaCa-2 (pancreas) cells, 96 hours exposure; read-out: Cytotoxicity activity IC50 (50% inhibition of cell proliferation)
Method: as §1

[6] = tested on: HL60 (leukemia); assay: In vitro cytotoxic activity (MTT) assay, HL60; type: cell-based; settings: Homo sapiens, HL-60; HL60 (leukemia) cells, 96 hours exposure; read-out: Cytotoxicity activity IC50 (50% inhibition of cell proliferation)
Method: as §1

[7] = tested on: MCF7 (breast); assay: In vitro cytotoxic activity (MTT) assay, MCF7; type: cell-based; settings: Homo sapiens; MCF7 (breast) cells, 96 hours exposure; read-out: Cytotoxicity activity IC50 (50% inhibition of cell proliferation)
Method: as §1

[8] = tested on: MDA-MB-231 (breast); assay: In vitro cytotoxic activity (MTT) assay, MDA-MB-231; type: cell-based; settings: Homo sapiens; MDA-MB-231 (breast) cells, 96 hours exposure; read-out: Cytotoxicity activity IC50 (50% inhibition of cell proliferation)
Method: as §1

[9] = target: T1, recombinant human CK2 (holoenzyme) (Homo sapiens, UniProt P68400); assay: CK2 Kinase Assay (33P-ATP, filter plate); type: biochemical; settings: recombinant human CK2, 10 min at 30° C., eight concentrations; read-out: protein kinase CK2 IC50
T1 construct: purchased Millipore
T1 sequence (P68400 whole entry): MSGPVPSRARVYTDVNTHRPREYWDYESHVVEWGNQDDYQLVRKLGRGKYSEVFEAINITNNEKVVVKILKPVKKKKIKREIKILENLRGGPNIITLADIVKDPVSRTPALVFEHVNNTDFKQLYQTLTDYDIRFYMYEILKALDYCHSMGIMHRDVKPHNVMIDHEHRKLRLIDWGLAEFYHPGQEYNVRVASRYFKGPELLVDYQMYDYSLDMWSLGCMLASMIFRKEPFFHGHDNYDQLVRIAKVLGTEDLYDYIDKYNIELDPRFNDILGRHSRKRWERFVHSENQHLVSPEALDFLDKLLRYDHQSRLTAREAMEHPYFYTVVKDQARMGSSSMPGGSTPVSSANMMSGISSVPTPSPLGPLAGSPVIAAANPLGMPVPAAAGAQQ
T1 sequence (P67870 whole entry partner): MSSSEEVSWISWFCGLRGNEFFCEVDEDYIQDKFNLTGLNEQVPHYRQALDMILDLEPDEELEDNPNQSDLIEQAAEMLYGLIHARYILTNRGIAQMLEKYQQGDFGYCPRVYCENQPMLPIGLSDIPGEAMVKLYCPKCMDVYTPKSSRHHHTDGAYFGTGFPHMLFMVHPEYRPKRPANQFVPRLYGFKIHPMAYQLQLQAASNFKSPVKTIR
Method: CK2 Kinase Assay was conducted using the protocol as described in Pierre F. et al; J. Med. Chem. 2011, 54, 635-654. The tested compounds in aqueous solution were added at a volume of 10 μL to a reaction mixture comprising 10 μL of assay dilution buffer (ADB; 20 mM MOPS, pH 7.2, 25 mM B-glycerol phosphate, 5 mM EGTA, 1 mM sodium orthovanadate, and 1 mM dithiothreitol), 10 μL of substrate peptide (RRRDDDSDDD, dissolved in ADB at a concentration of 1 mM), 10 μL of recombinant human CK2 (RRBB-holoenzyme, 25 ng dissolved in ADB; Millipore). Reactions were initiated by the addition of 10 μL of ATP solution (90% 75 mMMgCl2, 75 μM ATP (final ATP concentration: […]) dissolved in ADB; 10% [y-33P]ATP (stock 1mCi/100 μL; 3000 Ci/mmol (Perkin-Elmer) and maintained for 10 min at 30° C. The reactions were quenched with 100 μL of 0.75% phosphoric acid and then transferred to and filtered through a phosphor cellulose filter plate (Millipore). After washing each well five times with 0.75% phosphoric acid, the plate was dried under vacuum for 5 min and, following the addition of 15 μL of scintillation fluid to each well, the residual radioactivity was measured using a Wallac […] counter. The IC50 values were derived from eight concentrations of test inhibitors.

Clc1cccc(Nc2nc3c(nn4cnccc34)c3ccncc23)c1 [Compound 1, N-(3-chlorophenyl)pyrimido[1′,6′: 1,5]pyrazolo[4,3-c][2,7]naphthyridin-5-amine]
pIC50 [1]: 5.85
pIC50 [2]: 5.92
pIC50 [3]: 5.44
pIC50 [4]: 5.64
pIC50 [5]: 5.96
pIC50 [6]: 5.40
pIC50 [7]: 5.28
pIC50 [8]: 5.35
pIC50 [9]: 7.52
